Reference: patent US20260258351A1, “METHOD FOR DIFFERENTIATING VISCERAL SENSORY NEURONS FROM HUMAN INDUCED PLURIPOTENT STEM CELLS” (SEOUL NATIONAL UNIVERSITY R&DB FOUNDATION, priority 2022, published 2026)

Tested on: induced-Visceral sensory neurons (i-VSN)
Assay: Live cell calcium imaging of induced-Visceral sensory neurons after compound treatment
Type: cell-based, human
Conditions: real-time calcium imaging, FLIPR Calcium 6 Assay Kit, FIGS. 7a-7f
Method: For Live cell calcium imaging, the FLIPR Calcium 6 Assay Kit ([…], Molecular Devices) was used. The overall steps were performed according to the manufacturer's protocol. The test solution, in which components A and B were mixed, was incubated in an incubator at 37° C. for 2 hours, and during this process, the carbon dioxide concentration was maintained at 5%. Then, after treatment with a fluorescent substance, the fluorescence signal was detected for 5 minutes using an EVOS live imaging system (Thermo-Fisher) capable of maintaining a temperature of 37° C., a 5% carbon dioxide concentration, and 80% humidity. The detected signals were obtained by video or continuous snapshots (once per second). In order to confirm the functional aspect of the induced Visceral sensory neurons, the changes in the activity of the neurons were measured using a real-time calcium imaging technique after treating the Visceral sensory neurons with various compounds known to stimulate the same. A total of three compounds (i.e., liraglutide, CCK-8, and capsaicin) were used. Liraglutide corresponds to an agonist of GLP1R and is known to activate the nodose ganglion. […] CCK-8 is an agonist of the CCK receptor and is known to be able to stimulate the nodose ganglion as well. […] Capsaicin is a compound that has excitotoxicity toward TRPV1 and is known to detect pain and heat sensations in the nodose ganglion. […]

Compound | change in neuron activity (calcium signal) after treatment
CCK-8 | calcium signal was amplified
COc1cc(CNC(=O)CCCC/C=C/C(C)C)ccc1O [Capsaicin] | induced the activity
